Values joined by “and” are separate entries in the source; they are usually repeats but may differ in a detail not shown here. Identical values can stand only once. Inconclusive results and toxic doses are left out. No stated cut-off is given here; in the data, active means T/C of 150% or more; inactive means T/C below 125%.
Tested on: L1210 leukemia ip in BDF1 mice, survival T/C
Assay: NCI In Vivo Anticancer Drug Screen. Data for tumor model L1210 Leukemia (intraperitoneal) in B6D2F1 (BDF1) mice
Conditions: endpoint: mean survival time, higher = longer survival
How it was run: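 Each compound was tested against a transplantable tumor grown in mice. The endpoint was survival, with treated animals benchmarked against vehicle controls as a simple ratio.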

[1] = dose: 100.0 mg/kg/injection, schedule: Q01DX001 (ip), vehicle: saline
[2] = dose: 200.0 mg/kg/injection, schedule: Q01DX001 (ip), vehicle: saline
[3] = dose: 400.0 mg/kg/injection, schedule: Q01DX001 (ip), vehicle: saline
[4] = dose: 50.0 mg/kg/injection, schedule: Q01DX009 (ip), vehicle: saline
[5] = dose: 50.0 mg/kg/injection, schedule: Q04DX003 (ip), vehicle: saline
[6] = dose: 100.0 mg/kg/injection, schedule: Q01DX009 (ip), vehicle: saline
[7] = dose: 100.0 mg/kg/injection, schedule: Q04DX003 (ip), vehicle: saline
[8] = dose: 100.0 mg/kg/injection, schedule: Q04DX003 (ip), vehicle: saline with Tween-80
[9] = dose: 6.25 mg/kg/injection, schedule: Q01DX009 (ip), vehicle: saline
[10] = dose: 12.5 mg/kg/injection, schedule: Q01DX009 (ip), vehicle: saline
[11] = dose: 25.0 mg/kg/injection, schedule: Q01DX009 (ip), vehicle: saline
[12] = dose: 100.0 mg/kg/injection, schedule: Q04DX003 (ip), vehicle: Klucel (hydroxypropylcellulose) (HPC)
[13] = dose: 200.0 mg/kg/injection, schedule: Q04DX003 (ip), vehicle: Klucel (hydroxypropylcellulose) (HPC)
[14] = dose: 400.0 mg/kg/injection, schedule: Q04DX003 (ip), vehicle: Klucel (hydroxypropylcellulose) (HPC)
[15] = dose: 100.0 mg/kg/injection, schedule: Q01DX005 (ip), vehicle: saline

Measured: T/C

CC1C(=O)C2C(CCC3=CC(=O)CCC32C)C2CCC(C(C)(C)OCCO)C12C (centres undefined)
inactive: dose: 50.0 mg/kg/injection, schedule: Q01DX001 (sc), vehicle: steriod suspending solution 105 % of control | dose: 100.0 mg/kg/injection, schedule: Q01DX001 (sc), vehicle: steriod suspending solution 102 % of control | dose: 200.0 mg/kg/injection, schedule: Q01DX001 (sc), vehicle: steriod suspending solution 107 % of control | dose: 400.0 mg/kg/injection, schedule: Q01DX001 (sc), vehicle: steriod suspending solution 96 % of control

Cc1ccc(S(=O)(=O)N(Cl)Cl)cc1
inactive: dose: 6.25 mg/kg/injection, schedule: Q01DX009 (ip), vehicle: Klucel (hydroxypropylcellulose) (HPC) 115 % of control | dose: 6.25 mg/kg/injection, schedule: Q04DX003 (ip), vehicle: Klucel (hydroxypropylcellulose) (HPC) 94 % of control | dose: 12.5 mg/kg/injection, schedule: Q04DX003 (ip), vehicle: Klucel (hydroxypropylcellulose) (HPC) 98 % of control | dose: 25.0 mg/kg/injection, schedule: Q01DX009 (ip), vehicle: Klucel (hydroxypropylcellulose) (HPC) 94 % of control | dose: 25.0 mg/kg/injection, schedule: Q04DX003 (ip), vehicle: Klucel (hydroxypropylcellulose) (HPC) 102 % of control | [1] 110 % of control | [2] 101 % of control | [3] 108 % of control

CCOP(=O)(OCC)Oc1ccc(Sc2ccc(OP(=O)(OCC)OCC)cc2)cc1
inactive: [1] 108 % of control

Cc1ncnc2c1ncn2C1OC(CO)C(O)C1O (centres undefined)
inactive: dose: 0.24 mg/kg/injection, schedule: Q01DX015 (ip), vehicle: saline 103 % of control | dose: 0.36 mg/kg/injection, schedule: Q01DX015 (ip), vehicle: saline 106 % of control | dose: 0.54 mg/kg/injection, schedule: Q01DX015 (ip), vehicle: saline 116 % of control | dose: 1.21 mg/kg/injection, schedule: Q01DX015 (ip), vehicle: saline 109 % of control and 110 % of control

COC1OCC(Cl)C(O)C1OS(C)(=O)=O (centres undefined)
inactive: dose: 100.0 mg/kg/injection, schedule: Q04DX002 (ip), vehicle: saline with Tween-80 96 % of control | dose: 200.0 mg/kg/injection, schedule: Q04DX002 (ip), vehicle: saline with Tween-80 100 % of control | dose: 400.0 mg/kg/injection, schedule: Q04DX002 (ip), vehicle: saline with Tween-80 104 % of control

Nc1n[nH]c(N)n1.[Pt]
inactive: [4] 102 % of control | [5] 97 % of control | [6] 102 % of control | [7] 102 % of control | dose: 200.0 mg/kg/injection, schedule: Q04DX003 (ip), vehicle: saline 100 % of control

CSc1nc(F)nc2c1ncn2C1OC(CO)C(O)C1O (centres undefined)
inactive: [1] 88 % of control | [2] 100 % of control

N#CC1CCCC1=O (centres undefined)
inactive: dose: 5.0 mg/kg/injection, schedule: Q01DX009 (ip), vehicle: saline 97 % of control | dose: 10.0 mg/kg/injection, schedule: Q01DX009 (ip), vehicle: saline 101 % of control | dose: 20.0 mg/kg/injection, schedule: Q01DX009 (ip), vehicle: saline 106 % of control

CCCCCCCCCCCCCCCC(=O)N(CCCCN(CCCN(C)C)C(=O)CCCCCCCCCCCCCCC)CCCN(C)C
inactive: [8] 91 % of control

CC(CC1c2ccccc2CCc2ccccc21)CN(C)C (centres undefined)
inactive: [9] 95 % of control | [10] 104 % of control | [11] 95 % of control | dose: 25.0 mg/kg/injection, schedule: Q04DX003 (ip), vehicle: saline 102 % of control | [4] 101 % of control | [5] 107 % of control | [7] 120 % of control

O=C1CCC2OC(=O)C3CCCC1C23 (centres undefined)
inactive: [1] 103 % of control | [2] 97 % of control | [3] 101 % of control

O=C1CNc2ccc(Cl)cc2N1
inactive: dose: 100.0 mg/kg/injection, schedule: Q04DX003 (ip), vehicle: acetone 92 % of control | dose: 200.0 mg/kg/injection, schedule: Q04DX003 (ip), vehicle: acetone 95 % of control | dose: 400.0 mg/kg/injection, schedule: Q04DX003 (ip), vehicle: acetone 88 % of control

CN(C)C(=O)N/C=C/NC(=O)N(C)C
inactive: dose: 12.5 mg/kg/injection, schedule: Q04DX002 (ip), vehicle: saline with Tween-80 92 % of control | dose: 25.0 mg/kg/injection, schedule: Q04DX002 (ip), vehicle: saline with Tween-80 89 % of control | dose: 50.0 mg/kg/injection, schedule: Q04DX002 (ip), vehicle: saline with Tween-80 106 % of control

CC1(C)C2CC3CC(C(=O)O)C(C(=O)O)CC3(C2)C1Br (centres undefined)
inactive: [12] 101 % of control | [13] 101 % of control | [14] 101 % of control

O=C(N/N=C/c1cc([N+](=O)[O-])ccc1O)c1cccc2ccccc12
inactive: [1] 90 % of control | [2] 90 % of control | [3] 92 % of control

C#Cc1ccc([N+](=O)[O-])cc1
inactive: dose: 100.0 mg/kg/injection, schedule: Q01DX009 (ip), vehicle: Klucel (hydroxypropylcellulose) (HPC) 95 % of control | [12] 88 % of control | dose: 200.0 mg/kg/injection, schedule: Q01DX009 (ip), vehicle: Klucel (hydroxypropylcellulose) (HPC) 94 % of control | [13] 91 % of control | dose: 400.0 mg/kg/injection, schedule: Q01DX009 (ip), vehicle: Klucel (hydroxypropylcellulose) (HPC) 95 % of control | [14] 93 % of control

O=C(NCCCN1CCN(CCCNC(=O)c2cccnc2)CC1)c1cccnc1
inactive: [9] 92 % of control | [10] 93 % of control | [11] 97 % of control | [4] 101 % of control | [6] 109 % of control | dose: 150.0 mg/kg/injection, schedule: Q01DX009 (ip), vehicle: saline 100 % of control | dose: 225.0 mg/kg/injection, schedule: Q01DX009 (ip), vehicle: saline 109 % of control

c1coc(-c2ncc3cnccn23)c1
inactive: dose: 50.0 mg/kg/injection, schedule: Q01DX005 (ip), vehicle: saline 111 % of control | [15] 108 % of control

CC(C)(C)Cc1cc(O)c2c(c1O)C(=O)c1ccccc1C2=O
inactive: dose: 100.0 mg/kg/injection, schedule: Q01DX009 (ip), vehicle: saline with Tween-80 98 % of control | [8] 97 % of control | dose: 200.0 mg/kg/injection, schedule: Q01DX009 (ip), vehicle: saline with Tween-80 98 % of control | dose: 200.0 mg/kg/injection, schedule: Q04DX003 (ip), vehicle: saline with Tween-80 97 % of control | dose: 400.0 mg/kg/injection, schedule: Q01DX009 (ip), vehicle: saline with Tween-80 96 % of control | dose: 400.0 mg/kg/injection, schedule: Q04DX003 (ip), vehicle: saline with Tween-80 92 % of control

CNc1ncnc2[nH]ncc12
inactive: dose: 50.0 mg/kg/injection, schedule: Q01DX001 (ip), vehicle: carboxymethylcellulose (CMC) 94 % of control | dose: 100.0 mg/kg/injection, schedule: Q01DX001 (ip), vehicle: carboxymethylcellulose (CMC) 88 % of control | dose: 200.0 mg/kg/injection, schedule: Q01DX001 (ip), vehicle: carboxymethylcellulose (CMC) 96 % of control | dose: 400.0 mg/kg/injection, schedule: Q01DX001 (ip), vehicle: carboxymethylcellulose (CMC) 103 % of control

COc1ccc(C=NC(C)(C)CO)cc1
inactive: dose: 100.0 mg/kg/injection, schedule: Q01DX001 (ip), vehicle: steriod suspending solution 114 % of control | dose: 200.0 mg/kg/injection, schedule: Q01DX001 (ip), vehicle: steriod suspending solution 90 % of control | dose: 400.0 mg/kg/injection, schedule: Q01DX001 (ip), vehicle: steriod suspending solution 97 % of control

Cc1cccc(CSc2nc(N)nc3ncn(C4CC(O)C(CO)O4)c23)n1 (centres undefined)
inactive: [15] 101 % of control | dose: 200.0 mg/kg/injection, schedule: Q01DX005 (ip), vehicle: saline 103 % of control

CC1C(c2ccccc2)OCCN1CN1C(=O)c2ccccc2C1=O (centres undefined)
inactive: dose: 100.0 mg/kg/injection, schedule: Q04DX002 (ip), vehicle: Klucel (hydroxypropylcellulose) (HPC) 100 % of control | dose: 200.0 mg/kg/injection, schedule: Q04DX002 (ip), vehicle: Klucel (hydroxypropylcellulose) (HPC) 104 % of control | dose: 400.0 mg/kg/injection, schedule: Q04DX002 (ip), vehicle: Klucel (hydroxypropylcellulose) (HPC) 104 % of control

CCCCCCCCCCCCCCCCN1CNC(=O)NC1
inactive: dose: 100.0 mg/kg/injection, schedule: Q01DX001 (ip), vehicle: other 98 % of control | dose: 200.0 mg/kg/injection, schedule: Q01DX001 (ip), vehicle: other 98 % of control | dose: 400.0 mg/kg/injection, schedule: Q01DX001 (ip), vehicle: other 95 % of control
